Measured values published in US12679839B2, “Cyclin-dependent kinase 7 (CDK7) non-covalent inhibitors” (JANSSEN PHARMACEUTICA NV, priority 2020, dated 2026).

Tests used:
[1] = target: T1, CDK7/Cyclin H/MAT-1 complex (Homo sapiens, UniProt P50613); experiment: Absorbance kinetic assay (20 nM CDK7/Cyclin H/MAT-1 complex); type: biochemical; conditions: for IC50: read-out: CDK7 (20 nM) pIC50 (converted)
T1 construct: Human CDK7 (amino acids 1-346); His6 (N); TEV protease cleavage site (N); made in house; host or cells: baculovirus-SF9 insect cells
Description: Human CDK7 (amino acids 1-346) containing an N-terminal His6-tag followed by a tobacco etch virus (TEV) protease cleavage site, human MAT1 (amino acids 1-309) and human cyclin H (amino acids 1-323) were co-expressed in the baculovirus-SF9 insect cell expression system to generate a trimeric complex. Cell pellets were collected 72 h post-infection and were resuspended by Dounce homogenization in 20 mM Hepes-NaOH (pH 8.0), 300 mM NaCl, 10% glycerol, 2 mM dithiothreitol DTT), and 20 mM Imidazole supplemented with cOmplete™ Protease Inhibitor Cocktail (Roche) and 25 U/mL Benzonase® Nuclease HC according to the manufacturer's instructions. Cells were lysed by passing through a Microfluidics M110Y Microfluidizer 3 times at 600 kPa followed by centrifugation at 38,000×g at 4° C. for 1 hour. The supernatant was loaded onto a pre-equilibrated HisTrap HP column and eluted in 20 mM Hepes-NaOH (pH 8.0), 50 mM NaCl, 10% glycerol, 2 mM DTT, and 400 mM Imidazole. The eluate was further purified by gel filtration on a Superdex S200 16/60 column and eluted with 20 mM Hepes-NaOH (pH 7.5), 50 mM NaCl, 10% Glycerol, 2 mM DTT. Fractions containing a trimeric complex of CDK7, cyclin H, and MAT1 in a 1:1:1 ratio were pooled and concentrated to 3 mg/mL in a 10 kDa MWCO concentrator, and diluted to a final concentration of 1.6 mg/mL in 11.1 mM Hepes-NaOH (pH 8.0), 27.8 mM NaCl, 1.1 mM DTT and 50% glycerol. […]
Absorbance Kinetic Assay (20 nM CDK7/Cyclin H/MAT-1 Complex)
CDK7 complex catalyzes the ATP-dependent phosphorylation of a peptide substrate CDK7/9-tide that is derived from RNA Pol II to produce phosphorylated peptide and ADP. The kinase reaction product ADP was converted to lactate and NAD^+ in the presence of phosphoenol pyruvate (PEP), NADH and coupling enzymes lactate dehydrogenase (LDH) and pyruvate kinase (PK). CDK7 complex catalytic activity was measured by following the absorbance intensity continuously at 340 nm that corresponds with the depletion of NADH.
Absorbance at 340 nm was followed kinetically at an interval of 2 minutes for 8 hours.
The assay was carried out with 100 μl reaction volume per well in a 384-well plate that was pre-spotted nanoliter volume of compounds by LabCyte Echo 555. Compound dilution plates were made by 2-fold (could vary upon necessity) dilution in DMSO for 11 concentrations plus a DMSO control of uninhibited reaction. 2× substrate and coupling reagent mixture was added to the assay plate followed by an addition of an equal volume of 40 nM CDK7/Cyclin H/MAT-1 complex. After mixing, assay plates were spun at 2000 rpm for 3 minutes and then transferred to the plate reader for data collection.
For reversible inhibitors, the absorbance reaction progress curves were linear. The steady-state rate was derived from the slope of the linear curves. The following equation is applied to determine percent inhibition.
[formula] • νo=max rate (uninhibited rate) • νi=inhibited rate
The IC50 value is calculated by the following equation:
[formula] where νo is the rate in the absence of inhibitor, νmin is the rate at highest inhibitor concentration, and h is the Hill coefficient. Flint Assay (5 nM CDK7/Cyclin H/MAT-1 Complex)

[2] = test system: RNA polymerase II Serine 5 phosphorylation (Rpb1 CTD), downstream substrate of CDK7; experiment: Imaging-based cellular RNA PolII Ser5 phosphorylation assay in A549 cells; type: cell-based, human; conditions: Homo sapiens, A549, 3 h, challenged with compound for 3 hours, read-out: pRNA polII Ser5 (A549) pIC50 (converted)
Text: Dosing curves were fitted using the following equation to obtain IC50: Y=Bottom+(Top−Bottom)/(1+10^((log IC50−X)*Hill slope)) where X=log10 of the compound concentration; top and bottom can be defined by PC and NC respectively. Imaging-Based Cellular RNA PolII Ser5 Phosphorylation Assay
To evaluate inhibition of CDK7 kinase activity, a 384-well automated imaging assay was used. This assay detects Serine 5 phosphorylation on a unique heptapeptide sequence in the C-terminal domain of Rpb1 subunit of RNA polymerase II, the downstream substrate of CDK7. This heptapeptide sequence is repeated up to 52 times in the CTD of Rpb1.
A549 adenocarcinoma human alveolar basal epithelial cells (ATCC, CCL-185), rabbit Phospho-Rpb1 CTD (Ser5) antibody (D9N51 (Cell Signaling Technology)), DMEM (Sigma), Fetal Bovine Serum (Biowest), L-glutamine (Sigma), Penicillin/Streptomycin (Life Technologies), Sodium Pyruvate (Sigma), Hepes (Sigma), poly-D-lysine coated μclear 384 black plates (Greiner), formaldehyde (PolySciences), D-PBS (Sigma), Methanol (Sigma), Alexa Fluor 488 goat anti rabbit IgG secondary antibody (Life Technologies), HCS CellMask™ Deep Red stain (Life Technologies), Hoechst 33258 (Invitrogen).
RNA Polymerase II Serine 5 phosphorylation was detected using a specific rabbit Phospho-Rpb1 CTD (Ser5) antibody. A549 adenocarcinoma human alveolar basal epithelial cells were seeded in 20 μl medium (DMEM supplemented with 1% Fetal Bovine Serum (heat inactivated 30′ 56° C.), 2 mM L-glutamine, 50 U/ml penicillin 50 μg/ml streptomycin, 1 mM sodium pyruvate and 50 mM hepes) at 1000 cells/well and cultured in poly-D-lysine coated μclear 384 black plates for 20 hours at 37° C. and 5% CO2.
After incubation cells were challenged with compound for 3 hours at 37° C. and 5% CO2. DMSO was used as high control and as low control 10 μM of LDC4297 reference compound was used. 40 nl of test compounds and controls were spotted in cell plates using Echo Liquid Handler (Echo 550, Labcyte). Incubation was followed by 20 minutes fixation with 20 μl 10% formaldehyde at room temperature. Medium/formaldehyde solution was removed, plates were washed 3 times with 30 μl D-PBS (w/o Ca^2+ and Ma^2+) and permeabilization was done by adding 20 μl ice cold methanol for 20 minutes. Cells were washed again 3 times with 30 μl D-PBS and 20 μl blocking buffer (25 ml fetal bovine serum in 500 ml D-PBS) was added for 1 hour.
After removing blocking buffer 20 μl 1/1000 primary antibody rabbit. Phospho-Rpb1 CTD (Ser5) antibody was added which binds to the phosphorylated Serine5 of the heptapeptide sequences in the CTD of Rpb1. Primary antibody was removed, and plates were washed 3 times with 30 μl D-PBS followed by addition of 20 μl 1/2000 Alexa Fluor 488 goat anti rabbit IgG secondary antibody for final detection of Phospho-Rpb1 CTD (Ser5) together with 1/5000 HCS CellMask™ Deep Red stain for membrane staining and 1/5000 Hoechst 33258 for nucleus staining. Last, plates were washed 2 times with 30 μl D-PBS and wells were filled with 40 μL D-PBS, plates were sealed (Thermowell sealing tape) and stored at 4° C. until reading. Plates were read with Opera Phenix (Perkin Elmer) with 10× air objective. Data were calculated and analyzed in Phaedra.
IC50 values were calculated using the following formula:
Average value of all HC's and all LC's are used for normalizations. % Effect=100−(sample−LC)/(HC−LC)×100% Control=(sample/HC)×100
A best-fit curve is fitted by a minimum sum of squares method to the plot of % Control vs. compound concentration. From this an IC50 value can be obtained. An estimate of the slope of the plot in terms of the Hill coefficient is also obtained.

T1 sequence (P50613 whole entry, the tested form may be a part): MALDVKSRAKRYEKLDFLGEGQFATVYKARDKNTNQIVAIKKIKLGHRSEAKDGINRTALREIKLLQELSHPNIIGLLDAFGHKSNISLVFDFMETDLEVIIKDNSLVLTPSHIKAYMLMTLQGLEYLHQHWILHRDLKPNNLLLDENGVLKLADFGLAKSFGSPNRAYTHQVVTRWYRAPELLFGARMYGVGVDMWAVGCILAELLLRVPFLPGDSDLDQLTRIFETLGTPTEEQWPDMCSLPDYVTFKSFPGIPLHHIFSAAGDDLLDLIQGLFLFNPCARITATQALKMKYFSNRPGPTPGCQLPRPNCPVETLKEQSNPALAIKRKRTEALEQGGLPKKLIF
T1 sequence (P51946 whole entry partner, the tested form may be a part): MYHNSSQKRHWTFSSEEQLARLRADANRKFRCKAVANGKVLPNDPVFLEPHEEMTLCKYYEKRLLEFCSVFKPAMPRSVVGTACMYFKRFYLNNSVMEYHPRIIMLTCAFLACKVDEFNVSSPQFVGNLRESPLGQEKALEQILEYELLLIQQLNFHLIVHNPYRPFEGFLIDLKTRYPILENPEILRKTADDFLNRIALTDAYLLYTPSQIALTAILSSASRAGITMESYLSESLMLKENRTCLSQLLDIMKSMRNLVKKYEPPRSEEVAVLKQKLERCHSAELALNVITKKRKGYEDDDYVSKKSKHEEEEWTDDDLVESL
T1 sequence (P51948 whole entry partner, the tested form may be a part): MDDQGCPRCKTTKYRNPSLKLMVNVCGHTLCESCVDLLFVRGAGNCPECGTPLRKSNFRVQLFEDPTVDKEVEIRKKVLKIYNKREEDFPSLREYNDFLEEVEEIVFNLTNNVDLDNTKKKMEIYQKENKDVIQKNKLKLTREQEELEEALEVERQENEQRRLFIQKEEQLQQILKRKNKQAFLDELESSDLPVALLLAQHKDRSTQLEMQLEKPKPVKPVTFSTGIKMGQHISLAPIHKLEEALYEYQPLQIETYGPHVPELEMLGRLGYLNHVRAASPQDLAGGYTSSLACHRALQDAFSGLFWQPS

CDK7 (20 nM) pIC50 [1] | IC50 [2] [nM] | IC50 [1] [nM] | SMILES
5.87 | > 10000 |  | C[C@@H]1Cc2cnc(NC3CCOCC3)nc2CN1C(=O)[C@@H]1CC[C@H](N(C)C)CN1c1ccccc1 (mixture of isomers) [Compound 168]
 | 8320 | 214 | C[C@@H]1Cc2cnc(NC3CCOCC3)nc2CN1C(=O)[C@H]1CCN(C)C[C@@H]1C1CC1 (racemic) [Compound 111]
 | > 10000 | 6030 | CO[C@H]1CC[C@H](Nc2ncc3c(n2)CN(C(=O)[C@H]2CCN(C)C[C@@H]2c2ccnc(C)c2)[C@H](C)C3)CC1 (relative stereo) [Compound 106]
 | > 10000 | > 10000 | Cc1ccc([C@H]2CN(C)CC[C@@H]2C(=O)N2Cc3nc(NC4CCOCC4)ncc3C[C@H]2C)cn1 (relative stereo) [Compound 107]
 | > 10000 | > 10000 | CO[C@H]1CC[C@H](Nc2ncc3c(n2)CN(C(=O)[C@@H]2CCN(C)C[C@H]2c2ccc(C)nc2)[C@H](C)C3)CC1 (relative stereo) [Compound 109]
 | > 10000 | > 10000 | C[C@@H]1Cc2cnc(NC3CCOCC3)nc2CN1C(=O)[C@@H]1CCN(C)C[C@H]1C1CC1 (relative stereo) [Compound 112]
 | 56.2 | 11 | C[C@@H]1Cc2cnc(NC3CCOCC3)nc2CN1C(=O)[C@H]1CCN(C)C[C@@H]1c1ccc(F)c(Cl)c1 (relative stereo) [Compound 114]
 | 269 | 11.7 | Cc1ccc([C@H]2CN(C)CC[C@@H]2C(=O)N2Cc3nc(NC4CCOCC4)ncc3C[C@H]2C)cc1 (relative stereo) [Compound 118]
 | 4270 | 724 | C[C@@H]1CN(C(=O)[C@H]2CCN(C)C[C@@H]2c2ccccc2)[C@H](C)c2nc(NC3CCOCC3)ncc21 (relative stereo) [Compound 182]
 | 537 | 25.7 | C[C@H]1c2nc(NC3CCOCC3)ncc2CCN1C(=O)[C@H]1CCN(C)C[C@@H]1c1ccccc1 (relative stereo) [Compound 184]
6.95 |  |  | CC(C)N1CC[C@H](C(=O)N2Cc3nc(NC4CCOCC4)ncc3C[C@H]2C)[C@@H](c2ccc(Cl)c(F)c2)C1 (single isomer, unassigned) [Compound 162]

The remaining lines, values behind:

SMILES | CDK7 (20 nM) pIC50 [1] | IC50 [2] [nM] | IC50 [1] [nM]
C[C@@H]1Cc2cnc(N[C@@H]3CCN(C)C(=O)C3)nc2CN1C(=O)[C@H]1CCN(C)C[C@@H]1c1ccccc1 (relative stereo) [Compound 4] |  | ~8130 | 35.5
Cc1cc([C@H]2CN(C)CC[C@@H]2C(=O)N2Cc3nc(NC4CCOCC4)ncc3C[C@H]2C)ccn1 (relative stereo) [Compound 103] |  | > 10000 | > 10000
C[C@@H]1Cc2cnc(NC3CCOCC3)nc2CN1C(=O)[C@H]1CCN(C)C[C@@H]1C1CC1 (relative stereo) [Compound 113] |  | 1740 | 79.4
C[C@@H]1Cc2cnc(NC3CCOCC3)nc2CN1C(=O)[C@H]1CCN(C)C[C@@H]1C1CCOCC1 (relative stereo) [Compound 115] |  | 6310 | 120
C[C@@H]1Cc2cnc(NC3CCOCC3)nc2CN1C(=O)[C@@H]1CCN(C)C[C@H]1c1ccncc1 (relative stereo) [Compound 116] |  | 1410 | 37.2
C[C@@H]1Cc2cnc(NC3CCOCC3)nc2CN1C(=O)[C@@H]1CCN(C)C[C@H]1c1cccnc1 (relative stereo) [Compound 117] |  | > 10000 | 16.2
C[C@@H]1Cc2cnc(NC3CCOCC3)nc2CN1C(=O)[C@H]1CCN(C)C[C@@H]1c1cccc(Cl)c1 (relative stereo) [Compound 119] |  | ~39.8 | 72.4
C[C@@H]1Cc2cnc(NC3CCOCC3)nc2CN1C(=O)[C@H]1CCN(C)C[C@@H]1c1ccc(F)cc1 (relative stereo) [Compound 120] |  | ~67.6 | 12
Cc1cccc([C@@H]2CN(C)CC[C@H]2C(=O)N2Cc3nc(Nc4cnn(C)c4)ncc3C[C@H]2C)c1 (relative stereo) [Compound 125] |  | 794 | 339
Cc1cccc([C@@H]2CN(C)CC[C@H]2C(=O)N2Cc3nc(NC4CCOCC4)ncc3C[C@H]2C)c1 (relative stereo) [Compound 137] |  | 955 | 457
C[C@@H]1Cc2cnc(NCc3ccccc3)nc2CN1C(=O)[C@H]1CCN(C)C[C@@H]1C(F)(F)F (relative stereo) [Compound 142] |  | 4170 | 2950
C[C@@H]1Cc2cnc(NC3CCOCC3)nc2CN1C(=O)[C@H]1CN(C)C[C@@H]1c1ccccc1 (relative stereo) [Compound 169a] |  | > 10000 | 468
C[C@@H]1C[C@H](C(=O)N2Cc3nc(NC4CCOCC4)ncc3C[C@H]2C)[C@@H](c2ccccc2)CN1C (relative stereo) [Compound 170a] |  | > 10000 | 794
C[C@@H]1c2nc(NC3CCOCC3)ncc2CCN1C(=O)[C@H]1CCN(C)C[C@@H]1c1ccccc1 (relative stereo) [Compound 183] |  | > 10000 | > 10000
